# Measurements as given in US20240300997A1, “PROTEIN FOLDING AGENT” (TOHOKU UNIVERSITY, priority 2021, published 2024).
# Experiments:
# native type β2m = molecular target: T1, native type β2m (Homo sapiens, UniProt P61769); assay: β2m aggregation experiment by heating; type: biochemical; conditions: 1 mM thiol compound; for appearance of the solution after cooling (before centrifugation): 10 µM native type β2m, heated from 25° C. to 50° C., 10 minutes, cooled to 25° C., FIG. 8; for residual rate of the native type β2m in the supernatant liquid: after heating to 50° C. and centrifugation, absorbance at 280 nm, FIG. 9
# T1 construct: made in house; host or cells: E. coli
# Experimental: A buffer containing 10 µM of native type β2m (50 mM Tris-HCl, pH 7.5; 300 mM NaCl) was heated from 25° C. to 50° C., equilibrated for 10 minutes when the temperature reached 50° C., and then cooled to 25° C. For a supernatant liquid of the fraction obtained after centrifugation, a residual rate of the native type β2m in the supernatant liquid was measured by measuring an absorbance at 280 nm using a spectrophotometer.
# For a buffer containing 10 µM of native type β2m (50 mM Tris-HCl, pH 7.5; 300 mM NaCl), 1 mM of the following thiol compound was added, and the obtained mixture was heated from 25° C. to 50° C., equilibrated for 10 minutes when the temperature reached 50° C., and then cooled to 25° C.
# For a supernatant liquid of the fraction obtained after centrifugation, a residual rate of the native type β2m in the supernatant liquid was measured by measuring an absorbance at 280 nm using a spectrophotometer.
# [1] = molecular target: T2, reduced and denatured β2m (β2-microglobulin) (Homo sapiens, UniProt P61769); assay: Disulfide bond introduction ability into reduced and denatured β2m (reversed-phase HPLC); type: biochemical; conditions: 1 mM thiol compound and 0.2 mM disulfide compound
# T2 construct: made in house; host or cells: E. coli
# Experimental: β2m was expressed as a recombinant by an E. coli expression system, and the collected cells were suspended in lysate A (50 mM Tris-HCl, pH 8.1; 300 mM NaCl), followed by ultrasonic disintegration. The fraction obtained after centrifugation was incubated in the presence of 8 M urea and 20 mM DTT at pH 8.0 and 50° C. for 3 hours, followed by purification by reversed-phase column chromatography (Hitachi) using a Cosmosil 5C18-AR-II column. • Reference Document 1: M. Okumura, H. Kadokura, S. Hashimoto, K. Yutani, S. Kanemura, T. Hikima, Y. Hidaka, L. Ito, K. Shiba, S. Masui, D. Imai, S. Imaoka, H. Yamaguchi, K. Inaba, Inhibition of the functional interplay between endoplasmic reticulum (ER) oxidoreduclin-1α (Ero1α) and protein-disulfide isomerase (PDI) by the endocrine disruptor bisphenol A. J Biol Chem. 2014 289(39): 27004-27018. • Reference Document 2: J. S. Weissman, P. S. Kim, Reexamination of the folding of BPTI: predominance of native intermediates. Science 1991 253 (5026): 1386-93. • Reference Document 3: M. M. Lyles, H. F. Gilbert Catalysis of the oxidative folding of ribonuclease A by protein disulfide isomerase: dependence of the rate on the composition of the redox buffer. Biochemistry. 1991 30 (3): 613-9.
# A buffer having the following combinations of 1 mM of a thiol compound and 0.2 mM of a disulfide compound (50 mM Tris-HCl, pH 7.5; 300 mM NaCl) was incubated at 30° C. with 10 μM of the reduced and denatured β2m prepared in the above 8), followed by a folding reaction.
# The reaction solution was dispensed over time, followed by adding an equal amount of 6 M guanidine hydrochloric acid and 1.5 M HCl, and the disulfide bond introduction reaction was quenched. In order to identify the molecular species in the reaction solution, the resultant was subjected to reversed-phase HPLC, and an oxidation type (N) and a reduction type (R) of β2m were analyzed (FIG. 4A to FIG. 4C and FIG. 5). […]
# Measurement and analysis conditions of the reversed-phase HPLC are shown below. 5C18-AR2 column (4.6×150 mm; NACALAI TESQUE) was used as a column, and an absorbance at 229 nm was detected. […]
appearance of the solution after cooling (before centrifugation) (native type β2m),reaction rate constant of the disulfide bond introduction reaction (pseudo-first-order reaction) [1],Compound,residual rate of the native type β2m in the supernatant liquid (native type β2m)
transparent,,"NCCNCCS [LDA-SH, 2-((2-aminoethyl)amino)ethane-1-thiol]",higher than that in the case of no additive and in the case of GSH
,6.96×10^−4,NCCNCCSSCCNCCN [LDA-SS],

# Further lines, the compound ahead of its results:
Compound,appearance of the solution after cooling (before centrifugation) (native type β2m),reaction rate constant of the disulfide bond introduction reaction (pseudo-first-order reaction) [1],residual rate of the native type β2m in the supernatant liquid (native type β2m)
"NCC(S)CN [BDA-SH, 1,3-diaminopropane-2-thiol]",transparent,,higher than that in the case of no additive and in the case of GSH
NCC(CN)SSC(CN)CN [BDA-SS],,3.59×10^−2,
"oxidized glutathione [GSSG, reference compound]",,1.12×10^−4,
